From US8940760B2, “Pyrazolo pyridine derivatives as NADPH oxidase inhibitors” (Genkyotex SA, priority 2008, dated 2015)

Tests used:
NOX activities [1] = assay: Chemiluminescence (luminol) measurement of ROS in cells; type: cell-based; conditions: 'usually'
Description: ROS was measured using the chemiluminescent probe luminol. Cells were cultured and plated as for Amplex Red except that the Amplex Red agent was replaced by 10 μg/mL luminol (Sigma 09235). Light emission was recorded continuously at 37° C. for 60 minutes using the luminescence function of the FluoStar Optima fluorescent plate reader. The mean of the four blank values was substracted from each corrected value for each time point. NOX activities were expressed as % of the activity in control cells. Residual activity of DPI-treated cells was usually <10%.

NOX activities [2] = assay: Nitroblue tetrazolium (NBT) test of intracellular and extracellular superoxide in cells; type: cell-based; conditions: DPI at final concentration of 10 μM, 'usually'
Description: Intracellular and extracellular superoxide was measured by a colorimetric technique using a quantitative nitroblue tetrazolium (NBT) test. SOD-inhibitable conversion of NBT to formazan, a fine blue precipitate, in the presence of superoxide anion was measured using Fluostar Optima spectrometer (BMG labtech). Following incubation with appropriate stimuli, cells were trypsinized (1× Trypsin-EDTA), collected by centrifugation, and washed with PBS to remove medium. 5×10^5 cells were plated on 48-well plates and incubated in Hank's balanced salt solution containing 0.5 mg/mL NBT with or without 800 U/mL SOD in the presence or absence of compounds according to the invention. As a control, DPI was included at a final concentration of 10 μM. After 2.5 h, cells were fixed and washed with methanol to remove non reduced NBT. The reduced formazan was then dissolved in 230 μl of 2M potassium hydroxide and in 280 μl of dimethylsulfoxide. The absorption was measured at 630 nm. For calculation, the absorbance at 630 nm was normalized for each individual well. The mean of the four blank values was substracted from each corrected value for each time point. NOX activities were expressed as % of the activity in control cells. Residual activity of DPI-treated cells was usually <10%.

NOX activities [3] = assay: H2DCF-DA fluorescence in TGF-β stimulated HUVEC; type: cell-based, human; conditions: HUVEC stimulated with TGF-β, 'usually'
Description: HUVEC are cultured in endothelial basal medium supplemented with hydrocortisone (1 μg/mL, CalbioChem), bovine brain extract (12 μg/mL), gentamicin (50 μg/mL, CalbioChem), amphotericin B (50 ng/mL, CalBioChem EGF (10 ng/mL, and 10% FCS until the fourth passage. When the fifth passage was started, cells were cultured with a lower concentration of FCS (2%) in the absence of EGF, if not indicated otherwise. All experiments were done with cells of the fifth passage. The cells were incubated with OxLDL (oxidized low-density lipoprotein) or its buffer as control for 24 h, before detection of O2^− formation.
HUVEC were plated on coverslips and made quiescent overnight in 0.5% BSA before stimulation with TGF-β. Cells were loaded for 10 minutes with 5 μM CM-H2DCFDA in phenol-red-free medium in the dark and then treated with TGF-β (R&D Systems) in the presence or absence of compounds according to the invention. Cells were then visualized by immunofluorescence microscopy after fixation and staining of the nuclei with DAPI or examined live using confocal microscopy. DCF fluorescence was visualized at an excitation wavelength of 488 nm and emission at 515 to 540 nm. […] For calculation, the absorbance at […] was normalized to absorbance at […] for each individual well. […] NOX activities were expressed as % of the activity in control cells. […]

NOX activity = assay: Amplex Red measurement of extracellular hydrogen peroxide (NOX activity) in DMSO-differentiated HL60 cells; type: cell-based, human; conditions: DPI at final concentration of 10 μM, 'usually'
Description: Human acute myeloid leukemia cell line HL-60 was cultured in RPMI 1640 (Invitrogen) supplemented with 10% heat-inactivated calf serum, 2 mM glutamine, 100 U/mL penicillin (Sigma), and 100 μg streptomycin (Sigma) at 37° C. under a humidified atmosphere of 5% CO2. HL60 differentiation to the neutrophil phenotype was triggered by adding Me2SO (final concentration 1.25% v/v for 6 days) to the culture medium.
Extracellular hydrogen peroxide was measured using Amplex UltraRed (Molecular Probes). Cells were trypsinized (1× Trypsin-EDTA), collected by centrifugation, and resuspended in HBSS supplemented with 1% glucose. Cells were seeded into black 96-well plates at a density of 50,000 cells in 200 μl testing buffer (HBSS 1% glucose containing 0.005 U/mL horseradish peroxidase (Roche) and 50 μM Amplex Red in the presence or absence of compounds according to the invention. As a control, DPI was included at a final concentration of 10 μM. The plates were placed in the fluorescent Optima Fluorescent plate reader and kept at 37° C. during 20 min. Fluorescence was measured for 15 min with excitation and emission wavelengths of 544 nm and 590 nm respectively. NOX activities were expressed as % of the activity in control cells. Residual activity of DPI-treated cells was usually <10%.

Measured: Residual activity of DPI-treated cells (NOX activity as % of control cells)

c1ccc([I+]c2ccccc2)cc1 [DPI, Diphenyl-iodonium]
< 10%: all assays above
